The values below come from paper PMC8617031, “Development of a BCL-xL and BCL-2 dual degrader with improved anti-leukemic activity,” (Nature Communications, 2021).

The structures appear in SMILES notation. Where “and” joins values, the source holds several entries; their conditions need not be identical. Identical values can stand only once.

The test system of experiment [1] is BCL-xL/PROTAC/VCB ternary complex (HiBit-BCL-xL, HaloTag-VHL). Kind of experiment: NanoBRET intracellular ternary complex formation in 293T cells, BCL-xL. It is filed as cell-based, human. To be noted: for NanoBRET ratio (610/450 x1000, background-subtracted), Bcl-xl, Ave / NanoBRET signal (610/450 ratio, background-subtracted), Ave, Bcl-xl: Ave of Read1 and Read2; for NanoBRET ratio (610/450 x1000, background-subtracted), Bcl-xl, Ave / NanoBRET ratio (610/450 x1000, background-subtracted), Bcl-xl, Read1 / NanoBRET ratio (610/450 x1000, background-subtracted), Bcl-xl, Read2: 293T cells, triplicate wells; for NanoBRET signal (610/450 ratio, background-subtracted), Ave, Bcl-xl: per replicate well; for NanoBRET signal (610/450 ratio, background-subtracted), Read1, Bcl-xl / NanoBRET signal (610/450 ratio, background-subtracted), Read2, Bcl-xl: individual replicate wells. An excerpt:
(§1) Plasmids HaloTag-VHL (Cat. No. CS1679C155) and CMV HiBit (Cat. No. CS1956B03) were purchased from Promega. HiBit-BCL-xL and HiBit-BCL-2 were constructed previously. The two mutants (HiBit-BCL-xL-K157-only and HiBit-BCL-xL-K-ko) were constructed through Gibson assembly method. The primer pair (5′-[…]-3′ and 5′-[…]c[…]-3′) and the template Flag-BCL-xL-K157-only or Flag-BCL-xL-K-ko (pDL2129)[2] were used to clone the BCL-xL-K157-only-containing and BCL-xL-K-ko-containing fragments, respectively. The primer pair (5′-[…]g[…]-3′ and 5′-[…]-3′) and pBit3.1-N (Cat. No. N2361, Promega) were used to clone the vector-containing fragment. The PCR fragments were assembled using NEBuilder® HiFi DNA Assembly Master Mix (Cat. No. E2621, NEB, Ipswich, MA, USA). DNA sequences in all these plasmids were authenticated by automatic sequencing. […] After 24 h, 2 × 10^4 transfected cells were seeded into white 96-well tissue culture plates in Gibco™ Opti-MEM™ I Reduced Serum Medium, No Phenol Red (Cat. No. 11-058-021, Fisher) containing 4% FBS with or without HaloTag NanoBRET 618 Ligand (Cat. No. PRN1662, Promega) and incubated overnight at 37 °C, 5% CO2. The following day, serial diluted compounds were added into the medium and plates were incubated at 37 °C, 5% CO2, for 6 h. After treatment, NanoBRET Nano-Glo Substrate (cat. no. N1662, Promega) was added into the medium, and the contents were mixed by shaking the plate for 30 s before measuring donor and acceptor signals on Biotek plate reader. Dual-filtered luminescence was collected with a 450/50 nm bandpass filter (donor, NanoBiT-BCL-XL protein or NanoBiT-BCL-2 protein) and a 610-nm longpass filter (acceptor, HaloTag NanoBRET ligand) using an integration time of 0.5 s. mBRET ratios were calculated following the NanoBRET™ Nano-Glo® Detection System (Cat. No. N1662, Promega).

Experiment [2] relates to BCL-2/PROTAC/VCB ternary complex (HiBit-BCL-2, HaloTag-VHL). Kind of experiment: NanoBRET intracellular ternary complex formation in 293T cells, BCL-2. It is filed as cell-based, human. To be noted: for NanoBRET ratio (610/450 x1000, background-subtracted), Bcl-2, Ave / NanoBRET signal (610/450 ratio, background-subtracted), Ave, Bcl-2: Ave of Read1 and Read2; for NanoBRET ratio (610/450 x1000, background-subtracted), Bcl-2, Ave / NanoBRET ratio (610/450 x1000, background-subtracted), Bcl-2, Read1 / NanoBRET ratio (610/450 x1000, background-subtracted), Bcl-2, Read2: 293T cells, triplicate wells; for NanoBRET signal (610/450 ratio, background-subtracted), Ave, Bcl-2: per replicate well; for NanoBRET signal (610/450 ratio, background-subtracted), Read1, Bcl-2 / NanoBRET signal (610/450 ratio, background-subtracted), Read2, Bcl-2: individual replicate wells.
From the text: as §1

Consider `Cc1ncsc1-c1ccc(C(C)NC(=O)C2CC(O)CN2C(=O)C(NC(=O)CCCC(=O)N2CCN(CC3(C)CCC(c4ccc(Cl)cc4)=C(CN4CCN(c5ccc(C(=O)NS(=O)(=O)c6ccc(NC(CCN7CCOCC7)CSc7ccccc7)c(S(=O)(=O)C(F)(F)F)c6)cc5)CC4)C3)CC2)C(C)(C)C)cc1` (mixture of isomers) [319-C5], for which, in experiment [1] (0.333 uM), the “NanoBRET ratio (610/450 x1000, background-subtracted), Bcl-xl, Ave” value (“NanoBRET ratio … Bcl-xl, Ave” for short) is 6.339 and 5.781 and 6.072; the “NanoBRET ratio (610/450 x1000, background-subtracted), Bcl-xl, Read1” value (“NanoBRET ratio … Bcl-xl, Read1” for short) was 6.257 and 5.719 and 6.3849; the “NanoBRET ratio (610/450 x1000, background-subtracted), Bcl-xl, Read2” value (shortened to “NanoBRET ratio … Bcl-xl, Read2”) is 6.422 and 5.844 and 5.759. Moreover, in experiment [1] (1 uM), the “NanoBRET ratio … Bcl-xl, Ave” value is 5.241 and 6.025 and 7.398; the “NanoBRET ratio … Bcl-xl, Read1” value was 5.522 and 5.988 and 7.452; the “NanoBRET ratio … Bcl-xl, Read2” value is 4.96 and 6.062 and 7.344. Also, in experiment [1] (3 uM), the “NanoBRET ratio … Bcl-xl, Ave” value was 5.367 and 5.631 and 6.141; the “NanoBRET ratio … Bcl-xl, Read1” value was 5.5804 and 5.686 and 6.375; the “NanoBRET ratio … Bcl-xl, Read2” value was 5.154 and 5.575 and 5.907. In experiment [2] (0.333 uM), the “NanoBRET ratio (610/450 x1000, background-subtracted), Bcl-2, Ave” value (“NanoBRET ratio … Bcl-2, Ave” below) is 5.628 and 6.032 and 6.002; the “NanoBRET ratio (610/450 x1000, background-subtracted), Bcl-2, Read1” value (shortened to “NanoBRET ratio … Bcl-2, Read1”) was 5.8735 and 6.598 and 5.9581; the “NanoBRET ratio (610/450 x1000, background-subtracted), Bcl-2, Read2” value (shortened to “NanoBRET ratio … Bcl-2, Read2”) was 5.383 and 5.466 and 6.046. In addition, in experiment [2] (1 uM), the “NanoBRET ratio … Bcl-2, Ave” value is 7.014 and 6.158 and 6.868; the “NanoBRET ratio … Bcl-2, Read1” value is 6.748 and 6.437 and 7.054; the “NanoBRET ratio … Bcl-2, Read2” value is 7.2789 and 5.879 and 6.683. Also, in experiment [2] (3 uM), the “NanoBRET ratio … Bcl-2, Ave” value is 6.77 and 7.133 and 6.868; the “NanoBRET ratio … Bcl-2, Read1” value is 6.63 and 7.268 and 6.8218; the “NanoBRET ratio … Bcl-2, Read2” value was 6.909 and 6.997 and 6.914.
Turning to `Cc1ncsc1-c1ccc(C(C)NC(=O)C2CC(O)CN2C(=O)C(NC(=O)CCCCC(=O)N2CCN(CC3(C)CCC(c4ccc(Cl)cc4)=C(CN4CCN(c5ccc(C(=O)NS(=O)(=O)c6ccc(NC(CCN7CCOCC7)CSc7ccccc7)c(S(=O)(=O)C(F)(F)F)c6)cc5)CC4)C3)CC2)C(C)(C)C)cc1` (mixture of isomers) [319-C6], in experiment [1] (0.333 uM), the “NanoBRET ratio … Bcl-xl, Ave” value is 6.174 and 6.1699 and 6.65; the “NanoBRET ratio … Bcl-xl, Read1” value is 6.062 and 6.008 and 6.406; the “NanoBRET ratio … Bcl-xl, Read2” value is 6.287 and 6.332 and 6.893. In experiment [1] (1 uM), the “NanoBRET ratio … Bcl-xl, Ave” value is 8.477 and 7.0143 and 7.515; the “NanoBRET ratio … Bcl-xl, Read1” value was 8.852 and 7.285 and 8.097; the “NanoBRET ratio … Bcl-xl, Read2” value was 8.103 and 6.744 and 6.934. In experiment [1] (3 uM), the “NanoBRET ratio … Bcl-xl, Ave” value was 8.009 and 9.063 and 8.852; the “NanoBRET ratio … Bcl-xl, Read1” value was 8.381 and 8.755 and 9.483; the “NanoBRET ratio … Bcl-xl, Read2” value is 7.637 and 9.371 and 8.221. Further, in experiment [2] (0.333 uM), the “NanoBRET ratio … Bcl-2, Ave” value is 6.191 and 6.524 and 6.882; the “NanoBRET ratio … Bcl-2, Read1” value is 6.596 and 6.719 and 7.227; the “NanoBRET ratio … Bcl-2, Read2” value was 5.786 and 6.329 and 6.537. Moreover, in experiment [2] (1 uM), the “NanoBRET ratio … Bcl-2, Ave” value was 6.728 and 7.064 and 7.162; the “NanoBRET ratio … Bcl-2, Read1” value was 6.811 and 7.607 and 7.576; the “NanoBRET ratio … Bcl-2, Read2” value is 6.646 and 6.52 and 6.748. Moreover, in experiment [2] (3 uM), the “NanoBRET ratio … Bcl-2, Ave” value is 8.027 and 7.6 and 7.992; the “NanoBRET ratio … Bcl-2, Read1” value was 8.178 and 7.5868 and 7.751; the “NanoBRET ratio … Bcl-2, Read2” value is 7.877 and 7.613 and 8.232.
Turning to `Cc1ncsc1-c1ccc(C(C)NC(=O)C2CC(O)CN2C(=O)C(NC(=O)CCCCCC(=O)N2CCN(CC3(C)CCC(c4ccc(Cl)cc4)=C(CN4CCN(c5ccc(C(=O)NS(=O)(=O)c6ccc(NC(CCN7CCOCC7)CSc7ccccc7)c(S(=O)(=O)C(F)(F)F)c6)cc5)CC4)C3)CC2)C(C)(C)C)cc1` (mixture of isomers) [319-C7], the “NanoBRET ratio … Bcl-xl, Ave” value is 6.383 and 6.41 and 6.027 in experiment [1] (0.333 uM); 8.353 and 6.411 and 6.637 in experiment [1] (1 uM); 5.568 and 7.612 and 6.364 in experiment [1] (3 uM). Also, the “NanoBRET ratio … Bcl-xl, Read1” value in experiment [1] (0.333 uM) is 6.118 and 6.864 and 6.2545; in experiment [1] (1 uM), 7.957 and 6.709 and 6.774; in experiment [1] (3 uM), 5.755 and 8.211 and 6.36. In addition, the “NanoBRET ratio … Bcl-xl, Read2” value is 6.648 and 5.956 and 5.8 in experiment [1] (0.333 uM); 8.749 and 6.113 and 6.499 in experiment [1] (1 uM); 5.382 and 7.013 and 6.368 in experiment [1] (3 uM). For the same molecule, the “NanoBRET ratio … Bcl-2, Ave” value in experiment [2] (0.333 uM) is 6.052 and 6.92 and 7.6505; in experiment [2] (1 uM) it was 8.414 and 7.671 and 8.038; in experiment [2] (3 uM) it was 7.385 and 7.884 and 8.749. Further, the “NanoBRET ratio … Bcl-2, Read1” value in experiment [2] (0.333 uM) is 5.966 and 6.845 and 7.7752; in experiment [2] (1 uM), 8.989 and 7.62 and 8.138; in experiment [2] (3 uM), 7.497 and 8.645 and 8.883. In addition, the “NanoBRET ratio … Bcl-2, Read2” value in experiment [2] (0.333 uM) is 6.137 and 6.996 and 7.5258; in experiment [2] (1 uM), 7.839 and 7.721 and 7.939; in experiment [2] (3 uM), 7.2733 and 7.122 and 8.615.
Take `Cc1ncsc1-c1ccc(C(C)NC(=O)C2CC(O)CN2C(=O)C(NC(=O)CCCCCCC(=O)N2CCN(CC3(C)CCC(c4ccc(Cl)cc4)=C(CN4CCN(c5ccc(C(=O)NS(=O)(=O)c6ccc(NC(CCN7CCOCC7)CSc7ccccc7)c(S(=O)(=O)C(F)(F)F)c6)cc5)CC4)C3)CC2)C(C)(C)C)cc1` (mixture of isomers) [319-C8]: the “NanoBRET signal (610/450 ratio, background-subtracted), Ave, Bcl-xl” value in experiment [1] (0.333 uM) is 7.726 and 6.163 and 6.736; in experiment [1] (1 uM), 7.132 and 7.494 and 7.451; in experiment [1] (3 uM), 8.664 and 8.41 and 8.787. Further, the “NanoBRET signal (610/450 ratio, background-subtracted), Read1, Bcl-xl” value in experiment [1] (0.333 uM) was 7.612 and 5.878 and 6.37; in experiment [1] (1 uM), 7.4 and 7.483 and 8.183; in experiment [1] (3 uM), 9.315 and 7.583 and 8.729. Besides, the “NanoBRET signal (610/450 ratio, background-subtracted), Read2, Bcl-xl” value in experiment [1] (0.333 uM) was 7.841 and 6.448 and 7.103; in experiment [1] (1 uM), 6.864 and 7.506 and 6.7195; in experiment [1] (3 uM), 8.012 and 9.238 and 8.844. Further, the “NanoBRET signal (610/450 ratio, background-subtracted), Ave, Bcl-2” value in experiment [2] (0.333 uM) is 6.709 and 6.763 and 6.945; in experiment [2] (1 uM), 8.276 and 7.6621 and 8.376; in experiment [2] (3 uM) it was 8.696 and 8.738 and 7.9326. Moreover, the “NanoBRET signal (610/450 ratio, background-subtracted), Read1, Bcl-2” value in experiment [2] (0.333 uM) was 6.876 and 6.829 and 6.839; in experiment [2] (1 uM) it was 8.792 and 8.054 and 8.836; in experiment [2] (3 uM), 8.912 and 9.6864 and 8.129. Moreover, the “NanoBRET signal (610/450 ratio, background-subtracted), Read2, Bcl-2” value in experiment [2] (0.333 uM) was 6.543 and 6.698 and 7.051; in experiment [2] (1 uM), 7.759 and 7.2706 and 7.917; in experiment [2] (3 uM) it was 8.48 and 7.79 and 7.737.
